Assay results from the supplement of paper PMC8617591.

What was measured:
[1] = test system: Mycobacterium tuberculosis Erdman (autoluminescent); assay: total FIC50 (Loewe) at 50% inhibition, three-drug combination (log2); higher = more antagonistic
Method: (§1)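 DiaMOND equipotent three-drug combination dose responses (10 doses, 1.5- or 2-fold spacing, centred on IC90) against autoluminescent M. tuberculosis Erdman in 8 in vitro models. Read-out is OD600, or luminescence for the intracellular and dormancy models, normalised to untreated wells. Hill-fit Einf, AUC25 and GRinf are potency metrics; FIC50 and FIC90 are total Loewe fractional inhibitory concentrations as log2 (negative = synergy).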

[2] = test system: Mycobacterium tuberculosis Erdman (autoluminescent); assay: total FIC90 (Loewe) at 90% inhibition, three-drug combination (log2); higher = more antagonistic
Method: as §1

[3] = test system: Mycobacterium tuberculosis Erdman (autoluminescent); assay: Einf, fitted maximum growth inhibition of three-drug combination (fraction); higher = stronger maximal inhibition
Method: as §1

[4] = test system: Mycobacterium tuberculosis Erdman (autoluminescent); assay: AUC25, normalised area under dose response up to IC25 (three-drug combination) (fraction (0-1)); higher = more potent at low dose
Method: as §1

[5] = test system: Mycobacterium tuberculosis Erdman (autoluminescent); assay: GRinf, maximum normalised growth rate inhibition (three-drug combination) (unitless (-1 to 1)); higher = less effect (negative = killing)
Method: as §1

COc1nc2ccc(Br)cc2cc1[C@@H](c1ccccc1)[C@@](O)(CCN(C)C)c1cccc2ccccc12 [bedaquiline] + COc1c(N2C[C@@H]3CCCN[C@@H]3C2)c(F)cc2c(=O)c(C(=O)O)cn(C3CC3)c12 [moxifloxacin] + CO[C@H]1/C=C/O[C@@]2(C)Oc3c(C)c(O)c4c(O)c(c(/C=N/N5CCN(C6CCCC6)CC5)c(O)c4c3C2=O)NC(=O)/C(C)=C\C=C\[C@H](C)[C@H](O)[C@@H](C)[C@@H](O)[C@@H](C)[C@H](OC(C)=O)[C@@H]1C [rifapentine]
Conditions	AUC25, [4]	Einf, [3]	GRinf, [5]	total FIC50, [1]	total FIC90, [2]
in vitro model: acidic pH 5.7, time point: constant (~7 days, model-specific)	0.0678	0.851	-0.0721	0.823	–
in vitro model: acidic pH 5.7, time point: terminal (~4-5 doublings, model-specific)	0.0653	0.994	-0.308	1.07	0.708
in vitro model: intracellular J774, time point: constant = terminal	–	0.932	-0.235	–	0.946

Conditions	AUC25, [4]	Einf, [3]	GRinf, [5]	total FIC50, [1]	total FIC90, [2]
in vitro model: butyrate, time point: constant (~7 days, model-specific)	0.1	0.952	-0.132	0.844	0.676
in vitro model: butyrate, time point: terminal (~4-5 doublings, model-specific)	0.0773	0.977	-0.0985	0.876	0.991
in vitro model: cholesterol 0.05 mM, time point: constant (~7 days, model-specific)	0.0837	0.716	-0.256	0.531	–
in vitro model: cholesterol 0.05 mM, time point: terminal (~4-5 doublings, model-specific)	0.0604	0.905	-0.183	0.923	0.462
in vitro model: cholesterol-high 0.2 mM, time point: constant (~7 days, model-specific)	0.0607	0.949	-0.394	0.723	0.4
in vitro model: cholesterol-high 0.2 mM, time point: terminal (~4-5 doublings, model-specific)	0.0498	1	-0.57	0.949	0.645
in vitro model: dormancy (butyrate + nitrate, low O2), time point: constant (~7 days, model-specific)	0.0857	0.928	0.0745	0.868	1.67
in vitro model: dormancy (butyrate + nitrate, low O2), time point: terminal (~4-5 doublings, model-specific)	0.0736	0.997	-0.28	1.05	1.35
in vitro model: standard 7H9 glycerol, time point: constant = terminal	0.0761	0.966	-0.0766	0.73	0.338
in vitro model: valerate, time point: constant (~7 days, model-specific)	0.063	0.915	-0.117	1.01	–
in vitro model: valerate, time point: terminal (~4-5 doublings, model-specific)	0.0335	0.946	-0.0711	0.995	0.711

COc1nc2ccc(Br)cc2cc1[C@@H](c1ccccc1)[C@@](O)(CCN(C)C)c1cccc2ccccc12 [bedaquiline] + COc1c(N2C[C@@H]3CCCN[C@@H]3C2)c(F)cc2c(=O)c(C(=O)O)cn(C3CC3)c12 [moxifloxacin] + CO[C@H]1/C=C/O[C@@]2(C)Oc3c(C)c(O)c4c(O)c(c(/C=N/N5CCN(C)CC5)c(O)c4c3C2=O)NC(=O)/C(C)=C\C=C\[C@H](C)[C@H](O)[C@@H](C)[C@@H](O)[C@@H](C)[C@H](OC(C)=O)[C@@H]1C [rifampicin]
Conditions	AUC25, [4]	Einf, [3]	GRinf, [5]	total FIC50, [1]	total FIC90, [2]
in vitro model: acidic pH 5.7, time point: constant (~7 days, model-specific)	0.0637	0.833	-0.0329	0.708	–
in vitro model: acidic pH 5.7, time point: terminal (~4-5 doublings, model-specific)	0.0621	0.98	-0.13	1.07	0.594
in vitro model: intracellular J774, time point: constant = terminal	–	0.938	-0.427	–	0.931

Conditions	AUC25, [4]	Einf, [3]	GRinf, [5]	total FIC50, [1]	total FIC90, [2]
in vitro model: butyrate, time point: constant (~7 days, model-specific)	0.12	0.964	-0.414	0.594	0.579
in vitro model: butyrate, time point: terminal (~4-5 doublings, model-specific)	0.105	0.99	-0.247	0.573	1.1
in vitro model: cholesterol 0.05 mM, time point: constant (~7 days, model-specific)	0.0826	0.745	-0.166	0.0975	–
in vitro model: cholesterol 0.05 mM, time point: terminal (~4-5 doublings, model-specific)	0.074	0.866	-0.045	1.13	-0.616
in vitro model: cholesterol-high 0.2 mM, time point: constant (~7 days, model-specific)	0.057	0.957	-0.452	0.677	0.0311
in vitro model: cholesterol-high 0.2 mM, time point: terminal (~4-5 doublings, model-specific)	0.0547	1	-0.61	0.955	0.594
in vitro model: dormancy (butyrate + nitrate, low O2), time point: constant (~7 days, model-specific)	0.0876	0.925	0.215	0.688	0.901
in vitro model: dormancy (butyrate + nitrate, low O2), time point: terminal (~4-5 doublings, model-specific)	0.0619	0.982	-0.201	0.97	1.03
in vitro model: standard 7H9 glycerol, time point: constant = terminal	0.0774	0.96	-0.141	0.732	–
in vitro model: valerate, time point: constant (~7 days, model-specific)	0.046	0.884	-0.0825	1.19	–
in vitro model: valerate, time point: terminal (~4-5 doublings, model-specific)	0.0316	0.953	-0.044	1.1	0.726

COc1nc2ccc(Br)cc2cc1[C@@H](c1ccccc1)[C@@](O)(CCN(C)C)c1cccc2ccccc12 [bedaquiline] + COc1c(N2C[C@@H]3CCCN[C@@H]3C2)c(F)cc2c(=O)c(C(=O)O)cn(C3CC3)c12 [moxifloxacin] + NC(=O)c1cnccn1 [pyrazinamide]
Conditions	AUC25, [4]	Einf, [3]	GRinf, [5]	total FIC50, [1]	total FIC90, [2]
in vitro model: acidic pH 5.7, time point: constant (~7 days, model-specific)	0.0871	0.847	-0.43	0.0701	–
in vitro model: acidic pH 5.7, time point: terminal (~4-5 doublings, model-specific)	0.0844	0.984	-0.325	0.276	-0.165
in vitro model: intracellular J774, time point: constant = terminal	–	0.982	-0.385	–	0.89

Conditions	AUC25, [4]	Einf, [3]	GRinf, [5]	total FIC50, [1]	total FIC90, [2]
in vitro model: butyrate, time point: constant (~7 days, model-specific)	0.108	0.952	-0.798	0.562	1.12
in vitro model: butyrate, time point: terminal (~4-5 doublings, model-specific)	0.0863	0.987	-0.741	0.738	1.18
in vitro model: cholesterol 0.05 mM, time point: constant (~7 days, model-specific)	0.113	0.762	-0.387	–	–
in vitro model: cholesterol 0.05 mM, time point: terminal (~4-5 doublings, model-specific)	0.115	0.95	-0.419	0.205	2.28
in vitro model: cholesterol-high 0.2 mM, time point: constant (~7 days, model-specific)	0.0866	0.981	-0.58	0.399	–
in vitro model: cholesterol-high 0.2 mM, time point: terminal (~4-5 doublings, model-specific)	0.0915	1	-0.586	0.406	0.558
in vitro model: dormancy (butyrate + nitrate, low O2), time point: constant (~7 days, model-specific)	0.0687	0.928	0.247	-0.56	-0.988
in vitro model: dormancy (butyrate + nitrate, low O2), time point: terminal (~4-5 doublings, model-specific)	0.0596	0.987	-0.0885	0.109	-0.187
in vitro model: standard 7H9 glycerol, time point: constant = terminal	0.0806	0.969	-0.108	–	–
in vitro model: valerate, time point: constant (~7 days, model-specific)	0.102	0.916	-0.131	0.831	–
in vitro model: valerate, time point: terminal (~4-5 doublings, model-specific)	0.06	0.949	-0.0556	0.778	1.03
